Measurements published in ChEMBL document CHEMBL1201862, “PubChem BioAssay data set” (2004).
Activity calls are given as the source filed them.

Assays:
NADPH oxidase 1 = target: T1, NADPH oxidase 1 (Homo sapiens, UniProt Q9Y5S8); format: functional, cell-based;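 also: Cell-based assay with luminescence read-out, IC50 derived from inhibitor dose-response curves; intracellular ROS from endogenous NOX1 in intact HT29 colon cancer cells; potency of inhibitors that lower the ROS luminescence signal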
T1 sequence (Q9Y5S8 whole entry): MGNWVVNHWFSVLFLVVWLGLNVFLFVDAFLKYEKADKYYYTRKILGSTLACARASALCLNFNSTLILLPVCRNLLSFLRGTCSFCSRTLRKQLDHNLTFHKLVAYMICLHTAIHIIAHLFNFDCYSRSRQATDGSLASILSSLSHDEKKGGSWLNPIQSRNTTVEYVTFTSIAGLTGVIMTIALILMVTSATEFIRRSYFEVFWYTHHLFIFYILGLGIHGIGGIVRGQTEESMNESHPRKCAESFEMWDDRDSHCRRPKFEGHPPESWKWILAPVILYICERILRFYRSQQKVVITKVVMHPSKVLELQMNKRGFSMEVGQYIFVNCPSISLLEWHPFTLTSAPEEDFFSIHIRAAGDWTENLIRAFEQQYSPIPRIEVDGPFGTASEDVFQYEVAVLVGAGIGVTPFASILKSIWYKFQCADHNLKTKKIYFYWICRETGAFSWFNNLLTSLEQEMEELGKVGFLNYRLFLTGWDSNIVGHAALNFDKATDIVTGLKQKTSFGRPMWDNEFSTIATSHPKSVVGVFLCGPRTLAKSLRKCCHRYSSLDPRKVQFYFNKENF

Estrogen receptor = target: T2, Estrogen receptor (Homo sapiens, UniProt P03372); test: potentiators of ERα–SRC-1 coactivator binding, dose response, biochemical, TR-FRET, ERα LBD (AID 737)
T2 sequence (P03372 whole entry): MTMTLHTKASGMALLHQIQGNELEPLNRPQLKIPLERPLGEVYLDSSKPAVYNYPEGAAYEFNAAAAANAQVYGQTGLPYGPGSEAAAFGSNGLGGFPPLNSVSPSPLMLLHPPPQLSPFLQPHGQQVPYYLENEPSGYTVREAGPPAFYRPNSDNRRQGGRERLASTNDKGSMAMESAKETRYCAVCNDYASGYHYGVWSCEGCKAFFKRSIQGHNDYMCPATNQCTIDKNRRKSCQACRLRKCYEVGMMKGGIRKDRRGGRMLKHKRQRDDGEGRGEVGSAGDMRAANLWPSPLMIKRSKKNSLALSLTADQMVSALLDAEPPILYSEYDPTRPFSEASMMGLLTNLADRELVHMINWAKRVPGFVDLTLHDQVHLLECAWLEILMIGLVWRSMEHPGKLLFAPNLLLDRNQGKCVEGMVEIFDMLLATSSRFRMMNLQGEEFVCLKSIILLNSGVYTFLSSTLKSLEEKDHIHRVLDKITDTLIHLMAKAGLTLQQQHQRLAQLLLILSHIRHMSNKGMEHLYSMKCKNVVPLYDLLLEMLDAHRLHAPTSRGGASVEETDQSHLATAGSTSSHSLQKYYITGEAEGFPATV

[1] = target: T3, Short transient receptor potential channel 4 (Mus musculus, UniProt Q9QUQ5); test: mouse TRPC4 channel activators, dose response, cell-based, HEK293 TRPC4/mu-opioid, Fluo-4 calcium (AID 434937); format: functional
T3 sequence (Q9QUQ5 whole entry): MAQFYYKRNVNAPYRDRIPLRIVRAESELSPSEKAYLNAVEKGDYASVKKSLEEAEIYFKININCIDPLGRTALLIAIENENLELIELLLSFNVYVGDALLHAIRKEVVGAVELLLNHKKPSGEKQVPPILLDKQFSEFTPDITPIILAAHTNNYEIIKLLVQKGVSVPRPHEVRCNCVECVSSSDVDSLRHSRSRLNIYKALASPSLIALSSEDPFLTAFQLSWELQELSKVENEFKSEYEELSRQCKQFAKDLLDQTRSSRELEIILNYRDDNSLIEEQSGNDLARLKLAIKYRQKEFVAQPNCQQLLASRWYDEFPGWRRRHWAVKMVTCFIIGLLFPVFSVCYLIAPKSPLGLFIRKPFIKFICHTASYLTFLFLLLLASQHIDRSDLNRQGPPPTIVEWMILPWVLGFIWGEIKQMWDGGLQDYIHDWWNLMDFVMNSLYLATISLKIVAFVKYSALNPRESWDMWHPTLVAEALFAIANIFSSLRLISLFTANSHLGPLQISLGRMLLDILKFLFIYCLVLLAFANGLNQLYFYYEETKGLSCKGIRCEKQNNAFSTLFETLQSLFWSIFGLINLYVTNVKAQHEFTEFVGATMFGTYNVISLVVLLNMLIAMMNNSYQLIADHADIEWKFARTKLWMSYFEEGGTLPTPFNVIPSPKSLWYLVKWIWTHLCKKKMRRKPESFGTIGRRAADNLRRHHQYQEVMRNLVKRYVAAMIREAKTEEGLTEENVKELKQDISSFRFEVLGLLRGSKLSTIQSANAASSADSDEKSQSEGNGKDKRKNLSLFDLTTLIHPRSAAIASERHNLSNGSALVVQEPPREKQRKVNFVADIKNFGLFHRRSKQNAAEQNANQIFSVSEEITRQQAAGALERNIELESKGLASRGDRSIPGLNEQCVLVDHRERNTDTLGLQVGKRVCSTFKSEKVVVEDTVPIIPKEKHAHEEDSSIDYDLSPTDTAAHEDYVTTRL

[2] = A cytotoxicity screen of small molecule inhibitors of the PhoP region in Salmonella typhi identified in the primary screen. [Related pubchem assays: 1850, 1864, 1985 ]; format: functional
[3] = target: Luciferin 4-monooxygenase (Photinus pyralis, UniProt P08659); test: Counter Screen for Luciferase-based Assay Positives. [Related pubchem assays: 620, 618, 411 ]
[4] = HEp-2 cell cytotoxicity, dose response, cytotoxicity control for RSV inhibitor project, HTS (AID 2410); format: functional; details: human respiratory syncytial virus
HT-1080 = test: cytotoxicity in HT1080 fibrosarcoma cells, cell-based, fluorescence readout (AID 620); format: functional; details: Homo sapiens
[5] = target: Inward rectifier potassium channel 2 (Mus musculus, UniProt P35561); test: Manual electrophysiological patch clamp assay for SAR compounds that inhibit/block inward-rectifying potassium ion channel Kir2.1. [Related pubchem assays: 1843 (Summary assay for Kir2.1 inhibitor assays.), 1672 (Primary HTS of 305616 compounds where 2592 were identified as active.)]; format: functional
Cytochrome P450 2C9 = Cytochrome P450 2C9 (Homo sapiens, UniProt P11712)
Cytochrome P450 2C19 = Cytochrome P450 2C19 (Homo sapiens, UniProt P33261); test: Cytochrome panel assay with activity outcomes. Panel member name: p450-cyp2c19 Compounds with AC50 equal or less than 10 uM are considered active; format: functional; details: read-out: AC50
cells = format: functional
[6] = target: T4, Neuropeptide Y receptor type 1 (Homo sapiens, UniProt P25929); test: Fluorescence-based counterscreen for agonists of NPY-Y2: cell-based high-throughput dose response assay for agonists of NPY-Y1.; format: functional
T4 sequence (P25929 whole entry): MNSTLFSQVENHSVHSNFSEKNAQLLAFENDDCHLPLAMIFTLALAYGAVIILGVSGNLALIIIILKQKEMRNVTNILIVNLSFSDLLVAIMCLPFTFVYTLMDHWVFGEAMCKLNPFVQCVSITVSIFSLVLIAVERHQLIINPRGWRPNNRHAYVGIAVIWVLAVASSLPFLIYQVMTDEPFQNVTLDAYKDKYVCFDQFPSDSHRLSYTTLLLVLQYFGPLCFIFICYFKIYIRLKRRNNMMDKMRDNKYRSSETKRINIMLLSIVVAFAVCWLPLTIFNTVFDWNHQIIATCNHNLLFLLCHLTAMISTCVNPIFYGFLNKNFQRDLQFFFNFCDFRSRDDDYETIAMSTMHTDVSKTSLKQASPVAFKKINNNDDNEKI

HEK293 = test: Fluorescence-based counterscreen for potentiators or agonists of NPY-Y2: cell-based high-throughput dose response assay to identify inhibitors of cyclic nucleotide gated ion channel (CNGC) activity. In this assay, the parental HEK293 cell line transfected with a cyclic-nucleotide gated ion channel (CNGC)-based cAMP sensor is used to measure inhibition of isoproterenol-induced CNGC activity by test compound.; format: functional; details: Homo sapiens;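 also: stimulus is 1 µM isoproterenol at EC100 plus PDE inhibitor Ro 20-1724 at 25 µM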
[7] = target: T5, Neuropeptide Y receptor type 2 (Homo sapiens, UniProt P49146); test: Fluorescence-based cell-based high-throughput dose response assay for agonists of NPY-Y2. [Related pubchem assays: 1703 (Screening assay (CNGC inhibitors).), 1359 (Screening assay (NPY-Y2 potentiators or agonists).), 1304 (Screening assay (NPY-Y1 potentiators or agonists).), 1710 (Screening assay (NPY-Y2 agonists).), 1791 (Summary AID.)]; format: functional
T5 sequence (P49146 whole entry): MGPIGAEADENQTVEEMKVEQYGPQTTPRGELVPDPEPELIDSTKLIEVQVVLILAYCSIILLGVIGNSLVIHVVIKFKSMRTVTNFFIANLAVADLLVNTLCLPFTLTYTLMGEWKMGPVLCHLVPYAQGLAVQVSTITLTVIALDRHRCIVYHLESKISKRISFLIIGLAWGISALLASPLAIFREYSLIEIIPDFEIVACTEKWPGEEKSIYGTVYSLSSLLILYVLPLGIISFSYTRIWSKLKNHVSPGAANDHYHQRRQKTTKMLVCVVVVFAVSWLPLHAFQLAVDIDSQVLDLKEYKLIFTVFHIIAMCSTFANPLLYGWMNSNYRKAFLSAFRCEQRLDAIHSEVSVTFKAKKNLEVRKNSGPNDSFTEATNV

Cytochrome P450 2C19, sequence (P33261 whole entry): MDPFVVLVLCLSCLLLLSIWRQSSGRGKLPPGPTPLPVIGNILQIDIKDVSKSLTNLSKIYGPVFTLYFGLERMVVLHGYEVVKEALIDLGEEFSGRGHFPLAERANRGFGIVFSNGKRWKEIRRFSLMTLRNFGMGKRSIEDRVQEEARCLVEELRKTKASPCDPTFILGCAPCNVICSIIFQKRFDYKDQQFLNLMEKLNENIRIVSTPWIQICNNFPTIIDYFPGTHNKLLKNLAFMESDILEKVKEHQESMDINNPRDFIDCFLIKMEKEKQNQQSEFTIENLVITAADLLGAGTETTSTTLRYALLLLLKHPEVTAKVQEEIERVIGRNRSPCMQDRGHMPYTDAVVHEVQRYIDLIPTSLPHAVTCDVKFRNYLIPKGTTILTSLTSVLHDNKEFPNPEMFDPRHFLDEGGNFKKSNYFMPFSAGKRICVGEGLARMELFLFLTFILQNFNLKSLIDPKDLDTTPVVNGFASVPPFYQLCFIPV
Inward rectifier potassium channel 2, sequence (P35561 whole entry): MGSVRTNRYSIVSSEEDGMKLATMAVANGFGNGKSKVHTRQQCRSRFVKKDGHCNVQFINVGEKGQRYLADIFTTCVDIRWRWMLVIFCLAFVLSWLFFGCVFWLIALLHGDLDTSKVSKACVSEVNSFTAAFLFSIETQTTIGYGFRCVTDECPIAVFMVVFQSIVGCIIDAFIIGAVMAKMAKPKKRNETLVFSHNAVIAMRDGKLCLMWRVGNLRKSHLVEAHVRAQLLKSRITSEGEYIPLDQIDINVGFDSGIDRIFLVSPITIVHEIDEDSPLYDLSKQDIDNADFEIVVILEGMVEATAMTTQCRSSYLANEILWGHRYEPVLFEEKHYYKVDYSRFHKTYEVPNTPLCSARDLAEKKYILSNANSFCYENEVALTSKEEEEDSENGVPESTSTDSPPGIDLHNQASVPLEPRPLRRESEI
Luciferin 4-monooxygenase, sequence (P08659 whole entry): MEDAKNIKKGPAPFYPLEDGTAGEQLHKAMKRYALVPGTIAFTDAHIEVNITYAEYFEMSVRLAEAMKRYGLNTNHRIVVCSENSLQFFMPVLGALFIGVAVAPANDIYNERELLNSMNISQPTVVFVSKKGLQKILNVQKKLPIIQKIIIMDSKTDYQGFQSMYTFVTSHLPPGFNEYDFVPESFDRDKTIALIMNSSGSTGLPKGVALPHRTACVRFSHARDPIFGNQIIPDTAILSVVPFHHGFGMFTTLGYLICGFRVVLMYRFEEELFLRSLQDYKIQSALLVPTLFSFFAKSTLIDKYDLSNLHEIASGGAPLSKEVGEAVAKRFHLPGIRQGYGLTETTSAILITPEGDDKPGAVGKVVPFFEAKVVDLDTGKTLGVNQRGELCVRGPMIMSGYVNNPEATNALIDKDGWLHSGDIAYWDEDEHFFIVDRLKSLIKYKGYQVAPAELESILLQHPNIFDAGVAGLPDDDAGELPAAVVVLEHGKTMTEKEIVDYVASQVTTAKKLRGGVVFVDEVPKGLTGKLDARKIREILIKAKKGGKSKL
Cytochrome P450 2C9, sequence (P11712 whole entry): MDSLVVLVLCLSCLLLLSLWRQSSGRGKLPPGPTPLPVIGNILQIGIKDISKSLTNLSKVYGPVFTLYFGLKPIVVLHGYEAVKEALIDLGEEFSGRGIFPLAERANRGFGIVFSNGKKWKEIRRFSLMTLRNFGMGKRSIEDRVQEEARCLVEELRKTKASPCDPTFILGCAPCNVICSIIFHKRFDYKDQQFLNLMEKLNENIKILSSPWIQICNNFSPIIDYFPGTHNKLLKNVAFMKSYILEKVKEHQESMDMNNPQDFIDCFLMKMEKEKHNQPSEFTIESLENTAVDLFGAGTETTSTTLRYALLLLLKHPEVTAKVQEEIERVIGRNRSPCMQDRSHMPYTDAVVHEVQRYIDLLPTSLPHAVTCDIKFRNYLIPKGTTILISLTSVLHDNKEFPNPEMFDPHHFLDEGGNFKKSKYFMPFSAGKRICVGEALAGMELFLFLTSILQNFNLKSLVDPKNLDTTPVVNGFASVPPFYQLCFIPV

O=C1Nc2ccccc2/C1=N/NC(=S)Nc1ccccc1
IC50 (NADPH oxidase 1): > 17 µM (not active)

COc1cc(NC(=O)c2cccs2)c(C(=O)OCC(=O)NC(=O)NCc2ccccc2)cc1OC
EC50 (Estrogen receptor): 1.58 µM (active)

Cc1cccc(N2CCN(C(=O)c3cc4c(=O)n(C)c5ccccc5c4n3C)CC2)c1C
EC50 (Estrogen receptor): 12.8 µM (active)

CN(CCOc1ccc(Cl)cc1)CC(O)c1ccccc1 (stereo unspecified)
EC50 [1]: 1.88 µM (active)
EC50 [2]: > 50 µM (active)

COc1cc(SC)ccc1C(=O)Nc1ccc2c(c1)OCCO2
EC50 [3]: 75.4 µM (active)
CC50 [4]: 19.9 µM (active)
EC50 (HT-1080): > 50 µM (not active)

COc1ccc(CNCc2ccc(OC)cc2)cc1
IC50 [5]: 1.88 µM (active)

CC(=O)/C=C1\Nc2ccccc2OC1=O
AC50 (Cytochrome P450 2C9): 2.24 µM (inconclusive)
AC50 (Cytochrome P450 2C19): 7.94 µM (inconclusive)
EC50 [2]: > 50 µM (active)
IC50 (cells): 5.75 µM (active)

OC1(c2ccc(OC(F)F)cc2)CS/C(=N\c2cccnc2)N1Cc1ccco1 (stereo unspecified)
EC50 [6]: > 35.4 µM (not active)
EC50 (HEK293): > 35.4 µM (not active)
EC50 [7]: > 35.4 µM (not active)
